Read-outs that look alike come from different tables or passages of the source.
Assays:
[1] = 10 day repeat dose oral safety study in mice; assay type: in vivo, Swiss Albino mice; conditions: male mice
in vitro [2] = assay type: cell-based, canine; conditions: dog
in vitro [3] = assay type: in vitro ADME; conditions: dog, microsomes
CYP1A2 = target: T1, CYP1A2 (Homo sapiens, UniProt P05177); assay: CYP inhibition in human liver microsomes, CYP1A2; assay type: in vitro ADME
T1 sequence (P05177 1-516): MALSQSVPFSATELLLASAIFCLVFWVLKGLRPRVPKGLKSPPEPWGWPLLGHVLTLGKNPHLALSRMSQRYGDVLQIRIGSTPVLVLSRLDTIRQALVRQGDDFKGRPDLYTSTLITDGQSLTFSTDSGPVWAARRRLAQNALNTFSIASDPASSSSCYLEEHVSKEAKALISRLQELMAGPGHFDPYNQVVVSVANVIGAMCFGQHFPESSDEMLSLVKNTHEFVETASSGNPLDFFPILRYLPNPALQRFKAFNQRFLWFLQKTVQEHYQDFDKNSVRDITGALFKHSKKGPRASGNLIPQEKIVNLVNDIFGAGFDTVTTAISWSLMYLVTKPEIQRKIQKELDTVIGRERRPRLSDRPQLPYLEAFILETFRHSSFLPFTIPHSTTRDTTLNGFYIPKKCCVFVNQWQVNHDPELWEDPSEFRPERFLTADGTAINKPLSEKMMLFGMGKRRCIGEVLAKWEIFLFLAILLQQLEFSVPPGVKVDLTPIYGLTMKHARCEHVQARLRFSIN

in vitro [4] = assay type: in vitro ADME; conditions: mouse, plasma
in vitro [5] = assay type: cell-based; conditions: African green monkey
in vitro [6] = assay type: in vitro ADME; conditions: dog, plasma
in vitro [7] = assay type: in vitro ADME; conditions: rat, plasma
in vitro [8] = assay type: in vitro ADME; conditions: rat, microsomes
ER α-glucosidase I = target: T2, ER α-glucosidase I (Bos taurus, UniProt A0A3Q1M9D9); assay type: cell-based
T2 sequence (A0A3Q1M9D9 1-839): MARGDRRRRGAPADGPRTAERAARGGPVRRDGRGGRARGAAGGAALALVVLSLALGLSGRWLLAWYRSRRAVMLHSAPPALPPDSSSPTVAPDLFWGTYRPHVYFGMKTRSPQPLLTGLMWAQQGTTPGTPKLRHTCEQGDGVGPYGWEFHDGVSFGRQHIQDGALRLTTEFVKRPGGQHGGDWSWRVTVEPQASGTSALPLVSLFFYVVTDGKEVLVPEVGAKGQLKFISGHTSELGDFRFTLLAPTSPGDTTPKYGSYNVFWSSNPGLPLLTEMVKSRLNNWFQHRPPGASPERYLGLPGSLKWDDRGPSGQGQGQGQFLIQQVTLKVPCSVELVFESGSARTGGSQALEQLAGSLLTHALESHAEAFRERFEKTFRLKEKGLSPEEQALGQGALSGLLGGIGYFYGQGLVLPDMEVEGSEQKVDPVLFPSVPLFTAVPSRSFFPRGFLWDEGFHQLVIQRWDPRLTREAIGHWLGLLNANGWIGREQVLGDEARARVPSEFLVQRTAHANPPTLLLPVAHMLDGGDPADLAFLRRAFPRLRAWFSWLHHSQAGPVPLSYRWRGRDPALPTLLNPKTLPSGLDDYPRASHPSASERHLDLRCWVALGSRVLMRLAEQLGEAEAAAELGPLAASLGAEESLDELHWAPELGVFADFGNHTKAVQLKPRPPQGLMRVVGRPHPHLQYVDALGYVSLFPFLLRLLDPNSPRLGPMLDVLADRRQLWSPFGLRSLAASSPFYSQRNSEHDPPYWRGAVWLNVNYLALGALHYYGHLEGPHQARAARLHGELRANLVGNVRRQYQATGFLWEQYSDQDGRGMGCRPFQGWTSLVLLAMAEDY

DENV2 strain S221 [9] = assay: Dengue viral load by qRT-PCR in serum and tissues of AG129 mice; assay type: in vivo; conditions: 100 mg/kg TID
[10] = Guinea pig pharmacokinetics; assay type: in vivo, Hartley guinea pigs; conditions: Hartley; for half-life: plasma, guinea pigs
ER α-glucosidase II = ER α-glucosidase II (Rattus norvegicus, UniProt A0A8I6GFL3); assay: Purified enzyme inhibition, ER α-glucosidase II; assay type: biochemical; conditions: rat liver enzyme
physchem = conditions: aqueous buffer
DENV2 strain S221 [11] = assay type: in vivo, AG129 mice
[12] = Maximum tolerated dose in guinea pigs; assay type: in vivo, Hartley guinea pigs; conditions: for MTD at 7 days: female, Hartley, guinea pig, in vivo, single bolus
CYP2C9 = CYP2C9 (Homo sapiens, UniProt P11712); assay: CYP inhibition in human liver microsomes, CYP2C9; assay type: in vitro ADME
[13] = 100 mg/kg PO TID 10 days, vs control
[14] = 72 h post infection, vs vehicle

ER α-glucosidase II, sequence (A0A8I6GFL3 33-944): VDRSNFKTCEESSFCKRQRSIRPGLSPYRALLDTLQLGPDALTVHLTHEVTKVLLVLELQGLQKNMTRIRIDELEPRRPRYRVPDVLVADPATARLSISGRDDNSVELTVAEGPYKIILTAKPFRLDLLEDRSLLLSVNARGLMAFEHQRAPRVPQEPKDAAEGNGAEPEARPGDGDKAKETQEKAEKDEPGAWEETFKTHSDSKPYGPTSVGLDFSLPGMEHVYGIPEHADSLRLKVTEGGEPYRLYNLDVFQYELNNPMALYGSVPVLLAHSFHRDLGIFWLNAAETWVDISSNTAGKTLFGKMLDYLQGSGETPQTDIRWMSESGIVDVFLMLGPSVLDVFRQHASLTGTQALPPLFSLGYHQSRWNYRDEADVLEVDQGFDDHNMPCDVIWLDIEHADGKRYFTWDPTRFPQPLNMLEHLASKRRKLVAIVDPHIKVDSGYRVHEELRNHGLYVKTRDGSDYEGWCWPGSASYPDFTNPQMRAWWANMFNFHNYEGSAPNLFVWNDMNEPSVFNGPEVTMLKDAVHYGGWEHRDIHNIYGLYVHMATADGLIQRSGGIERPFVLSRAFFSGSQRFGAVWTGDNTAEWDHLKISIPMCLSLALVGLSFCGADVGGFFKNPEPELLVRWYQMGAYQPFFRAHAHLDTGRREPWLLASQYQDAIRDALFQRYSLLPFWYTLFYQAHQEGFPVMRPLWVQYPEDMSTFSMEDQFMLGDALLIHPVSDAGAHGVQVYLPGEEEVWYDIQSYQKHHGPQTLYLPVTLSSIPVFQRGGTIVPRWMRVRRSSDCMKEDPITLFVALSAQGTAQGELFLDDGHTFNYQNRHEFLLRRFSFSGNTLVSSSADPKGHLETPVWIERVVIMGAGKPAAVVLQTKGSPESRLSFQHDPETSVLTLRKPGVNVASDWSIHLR
CYP2C9, sequence (P11712 whole entry): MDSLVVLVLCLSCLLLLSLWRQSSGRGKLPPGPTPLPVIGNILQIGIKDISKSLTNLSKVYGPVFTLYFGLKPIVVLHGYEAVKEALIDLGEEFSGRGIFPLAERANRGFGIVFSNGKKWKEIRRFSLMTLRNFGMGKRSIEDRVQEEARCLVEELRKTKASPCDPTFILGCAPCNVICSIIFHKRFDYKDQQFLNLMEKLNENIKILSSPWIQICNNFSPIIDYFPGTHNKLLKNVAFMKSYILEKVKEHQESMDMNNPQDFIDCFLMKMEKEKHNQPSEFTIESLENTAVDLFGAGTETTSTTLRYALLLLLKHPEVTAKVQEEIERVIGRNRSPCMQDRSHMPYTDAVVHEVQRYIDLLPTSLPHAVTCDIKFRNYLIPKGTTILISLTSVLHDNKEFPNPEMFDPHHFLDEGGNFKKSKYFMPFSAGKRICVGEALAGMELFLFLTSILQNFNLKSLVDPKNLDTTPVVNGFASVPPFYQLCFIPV

In the case of `OC[C@@H]1[C@@H](O)[C@H](O)[C@@H](O)CN1CCCCCCCCC1CCCO1` (stereo partly drawn) [UV-12], the “average weight lost at end of treatment” value ([1]; 100 mg/kg PO TID 10 days) is reported as 1.72 g, the “thymus finding at necropsy/histopathology” value ([1]; 100 mg/kg PO TID 10 days, associated with decreased thymus weight) is reported as “lymphoid depletion” and the “average weight lost at end of treatment” value ([1]; 100 mg/kg PO TID 10 days, not statistically significant) is reported as 4.53%. The “decreased ALP” value [1, 13] was 45%, the decreased glucose [1, 13] was 29% and the “increased AST” value [1, 13] was 76%. For the same compound, the “mortality, general health, body weights, food consumption” value ([1]; 100 mg/kg PO three times daily, 10 days) was “neither mortality nor any noteworthy effects”, the CC50 at 5 days (in vitro [2]) was over 500000 nM and the “Liver microsome metabolic stability CLintr” value (in vitro [3]) was under 0.6 mL/min/g liver. For the same compound, the half-life at 0.5 µM (in vitro [3]) was over 30 min, the “parent drug remained after 30 min” value (in vitro [3]; 0.5 h, 0.5 µM) was 100% and the IC50 (CYP1A2) was over 100000 nM. It also gave a fraction unbound at 6 h, 10 μM (in vitro [4]) of 0.36, a CC50 at 5 days (in vitro [5]) of over 500000 nM and a fraction unbound at 6 h, 10 μM (in vitro [6]) of 0.28. The fraction unbound at 6 h, 10 μM (in vitro [7]) was 0.32, the “Liver microsome metabolic stability CLintr” value (in vitro [8]) was under 0.6 mL/min/g liver and the half-life at 0.5 µM (in vitro [8]) was over 30 min. The “parent drug remained after 30 min” value (in vitro [8]; 0.5 h, 0.5 µM) was 100%, the “cellular half-life of UV-12 inhibition (blockage of α-glucosidase I)” value (ER α-glucosidase I) was 307 ± 109 min and the “reversibility of inhibition in cells” value (ER α-glucosidase I; MDBK cells) was “reversible inhibitor”. The “viral loads in serum, liver or spleens” value (DENV2 strain S221 [9]; 72 and 96 h) was “not reduced”, the “decrease in viral load, kidneys” value (DENV2 strain S221 [9]; [14]) was 12.9 fold and the “decrease in viral load, small intestine” value (DENV2 strain S221 [9]; [14]) was 6.1 fold. For the same compound, the “increase in virus titers, spleens” value (DENV2 strain S221 [9]; 72 h time point) was 5 fold, the “decrease in viral load, kidneys” value (DENV2 strain S221 [9]; 96 h post infection, vs vehicle) was 5.23 fold and the Cmax ([10]; in vivo) was 8850 to 11600 ng/mL. For the same compound, the Tmax ([10]; in vivo) was 15 to 30 min, the AUC(0-inf) ([10]; female, in vivo, im, 100 mg/kg) was 19200 ng·h/mL and the AUC(0-t) ([10]; female, in vivo, im, 100 mg/kg) was 19100 ng·h/mL. It also gave a Cmax ([10]; female, in vivo, im, 100 mg/kg) of 11600 ng/mL, a Tmax ([10]; female, in vivo, im, 100 mg/kg) of 15 min and a bioavailability ([10]; female, in vivo, im, 100 mg/kg) of 109%. The “Vss relative to normal body water” value ([10]; female, in vivo, iv) was over 8 fold, the AUC(0-inf) ([10]; female, in vivo, iv, 25 mg/kg) was 4400 ± 599 ng·h/mL and the AUC(0-t) ([10]; female, in vivo, iv, 25 mg/kg) was 4370 ± 583 ng·h/mL. For the same compound, the Cmax ([10]; female, in vivo, iv, 25 mg/kg) was 8860 ng/mL, the Vd ([10]; female, in vivo, iv, 25 mg/kg) was 5.14 ± 0.64 L/kg and the clearance ([10]; female, in vivo, iv, 25 mg/kg) was 95.9 ± 12.7 mL/min/kg. It also gave an AUC(0-inf) ([10]; female, in vivo, sc, 100 mg/kg) of 23100 ng·h/mL, an AUC(0-t) ([10]; female, in vivo, sc, 100 mg/kg) of 23000 ng·h/mL and a Cmax ([10]; female, in vivo, sc, 100 mg/kg) of 11000 ng/mL. The Tmax ([10]; female, in vivo, sc, 100 mg/kg) was 30 min, the bioavailability ([10]; female, in vivo, sc, 100 mg/kg) was 131% and the half-life ([10]; female, IM 100 mg/kg) was 119 ± 54.6 min. For the same compound, the half-life ([10]; female, IV 25 mg/kg) was 84 ± 5.4 min, the half-life ([10]; female, SC 100 mg/kg) was 133 ± 22.2 min and the IC50 (ER α-glucosidase II; Glc1 substrate, mean and SD, triplicate, read-out: IC50 α-glc II, Glc1) was 830 ± 370 nM. The IC50 (ER α-glucosidase II; Glc2 substrate, mean and SD, triplicate, read-out: IC50 α-glc II, Glc2) was 1100 ± 480 nM, the IC50 (ER α-glucosidase II; range over the two activities (Glc2, Glc1), read-out: IC50 for α-glucosidase II) was 830 to 1100 nM and the solubility (physchem) was over 100 mg/mL. For the same compound, the “animals protected (survival)” value (DENV2 strain S221 [11]; 20 mg/kg PO TID 7 days from 1 h before challenge) was 100%, the “animals protected (survival)” value (DENV2 strain S221 [11]; 100 mg/kg PO TID 7 days from 1 h before challenge) was 100% and the “clinical signs and mortality, 7 days observation” value ([12]; IM 20-100 mg/kg, IV 10-80 mg/kg) was “no clinical signs of toxicity or mortality”. It also gave an MTD at 7 days ([12]; IV route) of over 80 mg/kg, an MTD at 7 days ([12]; im, intramuscular route) of over 100 mg/kg and an IC50 (CYP2C9) of over 100000 nM.
